Data published in patent US20060069132A1, “Azolecarboxamide herbicides” (priority 2004, published 2006).

How the values were obtained:
lambsquarters = experiment: Test B pre-/postemergence herbicide test; assay type: in vivo, Chenopodium album; conditions: for Lambsquarters plant response rating: postemergence
Method in brief: (§1)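 Herbicidal effect was judged by eye on a 0–100 scale after plants stood 13 to 15 days in the greenhouse following pre- or postemergence treatment with surfactant-containing formulations.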

rice [1] = experiment: Test B pre-/postemergence herbicide test; assay type: in vivo, Oryza sativa; conditions: preemergence
Excerpt: Seeds selected from barnyardgrass (Echinochloa crus-galli (L.) Beauv.), Surinam grass (Urochloa decumbens (Staph) R. D. Webster, previously named Brachiaria decumbens Stapf), cocklebur (Xanthium strumarium L.), corn (Zea mays L.), large crabgrass (Digitaria sanguinalis (L.) Scop.), giant foxtail (Setaria faberi Herim.), lambsquarters (Chenopodium album L.), morningglory (Ipomoea coccinea L.), pigweed (Amaranthus retroflexus L.), rice (Oryza sativa L.) and velvetleaf (Abutilon theophrasti Medik.) were planted and treated preemergence with test chemicals formulated in a non-phytotoxic solvent mixture which included a surfactant.
At the same time, plants selected from these crop and weed species and also blackgrass (Alopecurus myosuroides Huds.), wheat (Triticum aestivum L.) and wild oat (Avena fatua L.) were treated with postemergence applications of test chemicals formulated in the same manner. Plants ranged in height from 2 to 18 cm (1- to 4-leaf stage) for postemergence treatments. Plant species in the flooded paddy test consisted of rice (Oryza sativa L.), small flower umbrella sedge (Cyperus difformis L.), ducksalad (Heteranthera limosa (Sw.) Willd.) and barnyardgrass (Echinochloa crus-galli (L.) Beauv.) grown to the 2-leaf stage for testing. Treated plants and controls were maintained in a greenhouse for 13 to 15 days, after which time all species were compared to controls and visually evaluated. Plant response ratings, summarized in Table B, are based on a scale of 0 to 100 where 0 is no effect and 100 is complete control. A dash (-) response means no test result.

wheat = experiment: Test B postemergence herbicide test; assay type: in vivo, Triticum aestivum; parameters: key to Wheat plant response rating: 0 = no effect, 100 = complete control; conditions: scale 0 (no effect) to 100 (complete control); for Wheat plant response rating: postemergence, visual rating
Method in brief: (§2)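 Scale 0–100: zero equals no visible effect, 100 complete control, judged by eye relative to controls. Timing: 13 to 15 days in greenhouse post-treatment. Growth stage at spraying: two leaves (paddy) or one to four leaves, 2–18 cm (postemergence).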

wild oat = experiment: Test B postemergence herbicide test; assay type: in vivo, Avena fatua; conditions: scale 0 (no effect) to 100 (complete control); for Oat, Wild plant response rating: postemergence, visual rating
Method in brief: as §2

large crabgrass = experiment: Test B pre-/postemergence herbicide test; assay type: in vivo, Digitaria sanguinalis; conditions: for Crabgrass, Large plant response rating: postemergence
Method in brief: as §1

Surinam grass = experiment: Test B pre-/postemergence herbicide test; assay type: in vivo, Urochloa decumbens; conditions: for Surinam Grass plant response rating: postemergence
Method in brief: as §1

[2] = tested on: small flower umbrella sedge; experiment: Test B flooded paddy test; assay type: in vivo, Cyperus difformis; conditions: 1000 g ai/ha, visual rating, scale 0 to 100 (0 no effect, 100 complete control), 13 to 15 days
Method in brief: (§3)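 Paddy species grown to the 2-leaf stage under flooding; blackgrass sprayed postemergence at 2–18 cm (1- to 4-leaf stage). Plants kept in a greenhouse for 13 to 15 days, then visually rated against controls on 0 (no effect) to 100 (complete control).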

morningglory = experiment: Test B pre-/postemergence herbicide test; assay type: in vivo, Ipomoea coccinea; conditions: for Morningglory plant response rating: postemergence
Method in brief: (§4)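 Test chemicals in a non-phytotoxic solvent mixture with surfactant were applied preemergence to seeded species and postemergence to plants 2-18 cm tall (1- to 4-leaf stage); rice and barnyardgrass were also tested in a flooded paddy at the 2-leaf stage. Visual rating versus controls after 13-15 days in greenhouse, scale 0 (no effect) to 100 (complete control).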

barnyardgrass [3] = experiment: Test B flooded paddy test; assay type: in vivo, Echinochloa crus-galli; conditions: 1000 g ai/ha, visual rating, scale 0 to 100 (0 no effect, 100 complete control), 13 to 15 days
Method in brief: as §3

barnyardgrass [4] = experiment: Test B pre-/postemergence herbicide test; assay type: in vivo, Echinochloa crus-galli; conditions: for Barnyardgrass plant response rating: postemergence
Method in brief: as §4

giant foxtail = experiment: Test B pre-/postemergence herbicide test; assay type: in vivo, Setaria faberi; conditions: for Foxtail, Giant plant response rating: postemergence
Method in brief: as §1

cocklebur = experiment: Test B pre-/postemergence herbicide test; assay type: in vivo, Xanthium strumarium; conditions: for Cocklebur plant response rating: postemergence
Method in brief: as §4

ducksalad = experiment: Test B flooded paddy test; assay type: in vivo, Heteranthera limosa; conditions: 1000 g ai/ha, visual rating, scale 0 to 100 (0 no effect, 100 complete control), 13 to 15 days
Method in brief: as §3

pigweed = experiment: Test B pre-/postemergence herbicide test; assay type: in vivo, Amaranthus retroflexus; conditions: for Pigweed plant response rating: postemergence
Method in brief: as §1

velvetleaf = experiment: Test B pre-/postemergence herbicide test; assay type: in vivo, Abutilon theophrasti; conditions: for Velvetleaf plant response rating: postemergence
Method in brief: as §1

blackgrass = experiment: Test B postemergence herbicide test; assay type: in vivo, Alopecurus myosuroides; conditions: scale 0 (no effect) to 100 (complete control); for Blackgrass plant response rating: postemergence, visual rating
Method in brief: as §3

corn = experiment: Test B pre-/postemergence herbicide test; assay type: in vivo, Zea mays; conditions: for Corn plant response rating: postemergence
Method in brief: as §1

rice [5] = experiment: Test B flooded paddy test; assay type: in vivo, Oryza sativa; conditions: 1000 g ai/ha, visual rating, scale 0 to 100 (0 no effect, 100 complete control), 13 to 15 days
Method in brief: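 Treated at 2-leaf (paddy) or 1–4-leaf, 2–18 cm (postemergence); greenhouse 13–15 d; visual score vs control, 0 none to 100 complete control; dash = not tested.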

[6] = 500 g ai/ha, visual rating 0-100, 0 no effect, 100 complete control, preemergence
[7] = Postemergence, 500 g ai/ha, visual rating after 13 to 15 days, scale 0 (no effect) to 100 (complete control)
[8] = 125 g ai/ha, visual rating, scale 0 (no effect) to 100 (complete control)
[9] = preemergence, 125 g ai/ha, 0 to 100 scale, 0 is no effect, 100 is complete control
[10] = Postemergence, 500 g ai/ha, visual rating after 13 to 15 days
[11] = 125 g ai/ha, 0 = no effect, 100 = complete control, preemergence
[12] = 500 g ai/ha, visual rating, 0 = no effect, 100 = complete control, preemergence
[13] = 500 g ai/ha, visual rating, scale 0 (no effect) to 100 (complete control)

## CCOC(=O)c1cc(NC(=O)c2cc(C(C)(C)C)nn2CC)ccc1C [Compound 99]
lambsquarters; [6]
  Plant response rating, Lambsquarters: 20
lambsquarters; [7]
  Plant response rating, Lambsquarters: 90
lambsquarters; [8]
  Lambsquarters plant response rating: 70
lambsquarters; [9]
  Plant response rating, Lambsquarters: 0
Rice [1]; 500 g ai/ha, visual rating 0-100, 0 no effect, 100 complete control
  Plant response rating, Rice: 0
Rice [1]; 125 g ai/ha, 0 to 100 scale, 0 is no effect, 100 is complete control
  Plant response rating, Rice: 0
wheat; [10]
  Plant response rating, Wheat: 20
wheat; 125 g ai/ha
  Wheat plant response rating: 20
Wild oat; [10]
  Plant response rating, Oat, Wild: 40
Wild oat; 125 g ai/ha
  Oat, Wild plant response rating: 20
Large crabgrass; [6]
  Plant response rating, Crabgrass, Large: 70
Large crabgrass; [7]
  Plant response rating, Crabgrass, Large: 10
Large crabgrass; [8]
  Crabgrass, Large plant response rating: 10
Large crabgrass; [9]
  Plant response rating, Crabgrass, Large: 20
Surinam grass; [6]
  Plant response rating, Surinam Grass: 30
Surinam grass; [7]
  Plant response rating, Surinam Grass: 10
Surinam grass; [8]
  Surinam Grass plant response rating: 10
Surinam grass; [9]
  Plant response rating, Surinam Grass: 10
[2]
  Sedge, Umbrella plant response rating: 40
morningglory; [6]
  Plant response rating, Morningglory: 0
morningglory; [7]
  Plant response rating, Morningglory: 20
morningglory; [8]
  Morningglory plant response rating: 0
morningglory; [9]
  Plant response rating, Morningglory: 0
Barnyardgrass [3]
  Barnyardgrass plant response rating: 0
Barnyardgrass [4]; [6]
  Plant response rating, Barnyardgrass: 30
Barnyardgrass [4]; [7]
  Plant response rating, Barnyardgrass: 0
Barnyardgrass [4]; [8]
  Barnyardgrass plant response rating: 0
Barnyardgrass [4]; [9]
  Plant response rating, Barnyardgrass: 0
Giant foxtail; [6]
  Plant response rating, Foxtail, Giant: 20
Giant foxtail; [7]
  Plant response rating, Foxtail, Giant: 30
Giant foxtail; [8]
  Foxtail, Giant plant response rating: 10
Giant foxtail; [9]
  Plant response rating, Foxtail, Giant: 10
cocklebur; [6]
  Plant response rating, Cocklebur: 0
cocklebur; [7]
  Plant response rating, Cocklebur: 30
cocklebur; [8]
  Cocklebur plant response rating: 0
cocklebur; [9]
  Plant response rating, Cocklebur: 0
ducksalad
  Ducksalad plant response rating: 0
pigweed; [7]
  Plant response rating, Pigweed: 70
pigweed; [8]
  Pigweed plant response rating: 20
pigweed; [9]
  Plant response rating, Pigweed: 0
velvetleaf; [6]
  Plant response rating, Velvetleaf: 20
velvetleaf; [7]
  Plant response rating, Velvetleaf: 40
velvetleaf; [8]
  Velvetleaf plant response rating: 20
velvetleaf; [9]
  Plant response rating, Velvetleaf: 10
blackgrass; [10]
  Plant response rating, Blackgrass: 40
blackgrass; 125 g ai/ha
  Blackgrass plant response rating: 20
corn; [6]
  Plant response rating, Corn: 0
corn; [7]
  Plant response rating, Corn: 20
corn; [8]
  Corn plant response rating: 10
corn; [9]
  Plant response rating, Corn: 0
Rice [5]
  Rice plant response rating: 0

## CCc1nc(C(C)(C)C)sc1C(=O)Nc1cc(C(=O)N(CC)CC)ccc1F [Compound 230]
lambsquarters; [11]
  Lambsquarters plant response rating (0 to 100 scale): 20
lambsquarters; [12]
  Plant response rating, Lambsquarters: 90
lambsquarters; [8]
  Lambsquarters plant response rating: 50
lambsquarters; [13]
  Lambsquarters plant response rating: 60
Rice [1]; 125 g ai/ha, 0 = no effect, 100 = complete control
  Rice plant response rating (0 to 100 scale): 0
Rice [1]; 500 g ai/ha, visual rating, 0 = no effect, 100 = complete control
  Plant response rating, Rice: 0
wheat; 125 g ai/ha
  Wheat plant response rating: 10
wheat; 500 g ai/ha
  Wheat plant response rating: 20
Wild oat; 125 g ai/ha
  Oat, Wild plant response rating: 20
Wild oat; 500 g ai/ha
  Oat, Wild plant response rating: 40
Large crabgrass; [11]
  Crabgrass, Large plant response rating (0 to 100 scale): 20
Large crabgrass; [12]
  Plant response rating, Crabgrass, Large: 70
Large crabgrass; [8]
  Crabgrass, Large plant response rating: 10
Large crabgrass; [13]
  Crabgrass, Large plant response rating: 20
Surinam grass; [11]
  Surinam Grass plant response rating (0 to 100 scale): 0
Surinam grass; [12]
  Plant response rating, Surinam Grass: 10
Surinam grass; [8]
  Surinam Grass plant response rating: 10
Surinam grass; [13]
  Surinam Grass plant response rating: 10
morningglory; [11]
  Morningglory plant response rating (0 to 100 scale): 10
morningglory; [12]
  Plant response rating, Morningglory: 10
morningglory; [8]
  Morningglory plant response rating: 20
morningglory; [13]
  Morningglory plant response rating: 70
Barnyardgrass [3]
  Barnyardgrass plant response rating: 50
Barnyardgrass [4]; [11]
  Barnyardgrass plant response rating (0 to 100 scale): 10
Barnyardgrass [4]; [12]
  Plant response rating, Barnyardgrass: 50
Barnyardgrass [4]; [8]
  Barnyardgrass plant response rating: 0
Barnyardgrass [4]; [13]
  Barnyardgrass plant response rating: 20
Giant foxtail; [11]
  Foxtail, Giant plant response rating (0 to 100 scale): 10
Giant foxtail; [12]
  Plant response rating, Foxtail, Giant: 80
Giant foxtail; [8]
  Foxtail, Giant plant response rating: 10
Giant foxtail; [13]
  Foxtail, Giant plant response rating: 20
cocklebur; [11]
  Cocklebur plant response rating (0 to 100 scale): 0
cocklebur; [12]
  Plant response rating, Cocklebur: 0
cocklebur; [8]
  Cocklebur plant response rating: 0
cocklebur; [13]
  Cocklebur plant response rating: 10
ducksalad
  Ducksalad plant response rating: 60
pigweed; [11]
  Pigweed plant response rating (0 to 100 scale): 40
pigweed; [12]
  Plant response rating, Pigweed: 80
pigweed; [8]
  Pigweed plant response rating: 40
pigweed; [13]
  Pigweed plant response rating: 60
velvetleaf; [11]
  Velvetleaf plant response rating (0 to 100 scale): 10
velvetleaf; [12]
  Plant response rating, Velvetleaf: 30
velvetleaf; [8]
  Velvetleaf plant response rating: 20
velvetleaf; [13]
  Velvetleaf plant response rating: 30
blackgrass; 125 g ai/ha
  Blackgrass plant response rating: 30
blackgrass; 500 g ai/ha
  Blackgrass plant response rating: 30
corn; [11]
  Corn plant response rating (0 to 100 scale): 0
corn; [12]
  Plant response rating, Corn: 10
corn; [8]
  Corn plant response rating: 10
corn; [13]
  Corn plant response rating: 20
Rice [5]
  Rice plant response rating: 60
